# Source: patent US11426356B2, “Crosslinked particles” (Pendant Biosciences, Inc., priority 2015, dated 2022)
# How the values were obtained:
# Assay type in all cases: physicochemical
# [1] = Drug loading of crosslinked PVL-co-PAVL macroparticles (cylinders)
# Experimental: (§1) Unless otherwise indicated, quantitation of drug products was carried out using HPLC methods. Calibration curves for drugs used herein (e.g., triamcinolone, triamcinolone hexacetonide, triamcinolone acetonide, paclitaxel, and curcumin) were prepared by injecting known concentrations of the drugs and measuring the area under the curve at each concentration. Analyses were carried out using an Agilent Zorbax Eclipse XDB-C18 column (150×4.6 mm i.d.) with a 12.5×4.6 mm guard column. The parameters for each drug are given below in Table 1
# A crosslinked macroparticle weighing about 15 mg comprising PVL-co-PAVL (MW=14760 g/mol, 13% AVL, 87% VL) was loaded with 2.5 mg paclitaxel by overnight soaking in THF followed by the slow addition of 50 mL PBS containing 0.1% Tween.
# [2] = Preliminary drug release from crosslinked macroparticles
# Experimental: as §1
# The macroparticles were suspended in PBS (0.1% Tween) and the release rate was observed. The macroparticles released 5% of the paclitaxel after 3 hours at room temperature and about 5% after 24 hours at room temperature.
# [3] = Release of triamcinolone hexacetonide from loaded particles in dissolution media
# Experimental: as §1
# 25 mg of 75:25 (mPEG-PVL-PAVL:PVL-PAVL) particles were swollen overnight with 2 mg/mL triamcinolone hexacetonide in THF. 10 mL water including 0.1% tween was then added dropwise. The resulting mixture was centrifuged, the supernatant was collected, and the addition of 10 mL water including 0.1% tween was added dropwise again (2×; 30 mL total).
# Without wishing to be bound by theory, this may be due to the fact that the triamcinolone hexacetonide crystallized on the surface of the particles. Without wishing to be bound by theory, this may be due to the relatively fast addition of water and the limited solubility of triamcinolone hexacetonide, which caused it to crystallize.
# The loading efficiency, which included surface-bound drug or free drug in solution, was 67%. Upon suspending the particles in dissolution media, 20% of the triamcinolone hexacetonide was released within an hour, and 30% was released within 2 hours.
# [4] = Loading of particles with triamcinolone hexacetonide (swelling in THF, slow addition of water); settings: included surface-bound drug or free drug in solution
# Experimental: In some embodiments, the loading procedure can affect the amount of drug that is absorbed into a particle of the present disclosure. For example, as set forth in Examples 7 and 8, 25 mg of 75:25 (mPEG-PVL-PAVL:PVL-PAVL) particles were swollen overnight with 2 mg/mL triamcinolone hexacetonide in THF. However, without wishing to be bound by theory, slow addition of greater volumes of water can facilitate greater uptake of triamcinolone hexacetonide by allowing the drug to preferentially partition into the particles. As set forth in Examples 7 and 8, slow addition of water enabled 67% loading efficiency. Additional parameters, in addition to the rate of water addition, that can affect the loading of a drug into a particle of the present disclosure are, for instance, the solvent in which the drug is dissolved, the time that the particles soak with the drug, and the volume of water used. Other parameters include the pH and the ionic strength of the solvent. For example, protic organic solvents such as methanol or ethanol can be used in place of water to facilitate loading of drug into a particle of the present disclosure.
# Unless otherwise indicated, quantitation of drug products was carried out using HPLC methods. […]
# [5] = Curcumin loading, release and post-release extraction of microparticle flakes
# Experimental: as §1
# Crosslinked microparticles (15 mg) were loaded with 2.5 mg curcumin by overnight soaking in THF followed by the slow addition of 50 mL PBS containing 0.1% Tween. The microparticles were rinsed with THF to remove free curcumin and dried overnight.
# It was observed that microparticles thus produced formed “flakes” that could not be re-suspended in THF or PBS buffer solution upon drying. […] The flakes could not be re-suspended in PBS buffer.
# The release profile of curcumin of microparticle flakes produced by the method described above. The release profile is further quantified in Table 6, below.
# [6] = triamcinolone hexacetonide, first cylinder (labelled with a circle)
# [7] = particles of Example 8 suspended in dissolution media
# [8] = about 15 mg PVL-co-PAVL macroparticle loaded with 2.5 mg paclitaxel
# [9] = about 15 mg PVL-co-PAVL macroparticle, PBS (0.1% Tween), room temperature
compound,measurement,setting,value
CC(C)(C)CC(=O)OCC(=O)[C@@]12OC(C)(C)O[C@@H]1C[C@H]1[C@@H]3CCC4=CC(=O)C=C[C@]4(C)[C@@]3(F)[C@@H](O)C[C@@]12C [triamcinolone hexacetonide],amount of drug in the first cylinder,[1]; [6],1.118 mg
same,capacity of the first cylinder,[1]; [6],9.12%
same,capacity of the second cylinder,"[1]; triamcinolone hexacetonide, second cylinder (labelled with an X)",11.651%
same,amount of drug in the second cylinder,"[1]; triamcinolone hexacetonide, second cylinder (labelled with an X), in mg",0.901
same,total drug released after about 6 days,"[2]; both triamcinolone hexacetonide cylinders, FIG. 23",about 60%
same,release profile,"[3]; Example 7: 75:25 (mPEG-PVL-PAVL:PVL-PAVL) particles, relatively fast addition of water, surface-crystallized drug",relatively rapid release
same,triamcinolone hexacetonide released within 2 hours,[3]; [7],30%
same,triamcinolone hexacetonide released within an hour,[3]; [7],20%
same,loading efficiency,[4],67%
COc1cc(/C=C/C(=O)CC(=O)/C=C/c2ccc(O)c(OC)c2)ccc1O [curcumin],capacity,[1]; curcumin-loaded cylinder,9.64%
same,amount of drug in the cylinder,[1]; curcumin-loaded cylinder dissolved in THF,1.176 mg
same,curcumin released after about eight days,"[2]; curcumin-loaded cylinder, FIG. 21",almost all
same,curcumin recovered in post-release extraction of the flakes,[5]; after 48 hours release,57%
same,curcumin released after 48 hours,[5]; from microparticle flakes,51%
CC(=O)O[C@H]1C(=O)[C@@]2(C)[C@H]([C@H](OC(=O)c3ccccc3)[C@]3(O)C[C@H](OC(=O)[C@H](O)[C@@H](NC(=O)c4ccccc4)c4ccccc4)C(C)=C1C3(C)C)[C@]1(OC(C)=O)CO[C@@H]1C[C@@H]2O [paclitaxel],loading capacity,[1]; [8],1.7 % w/w
same,loading efficiency,[1]; [8],30%
same,paclitaxel released after 3 hours,[2]; [9],5%
same,paclitaxel released after 24 hours,[2]; [9],about 5%
